Source: ChEMBL document CHEMBL1201862, “PubChem BioAssay data set” (2004)
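Method: 48-hour compound exposure of cells in 96-well plates, five concentrations, linear interpolation of endpoints. GI50 = concentration required for 50% inhibition of growth.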 Active and inactive are the calls of the source. Cut-off read from the data, not from the text of the source: active = GI50 up to about 1.1 µM and inactive = higher.

Key:
Experiment in all cases: NCI-60 cell line screen, 48 h
UACC-257 = system: UACC-257
SF-539 = system: SF-539
CCRF-CEM = system: CCRF-CEM
A498 = system: A498
MDA-N = system: MDA-N
OVCAR-4 = system: OVCAR-4
M14 = system: M14
SW-620 = system: SW-620
NCI-H226 = system: NCI-H226
RXF 393 = system: RXF 393
KM12 = system: KM12
OVCAR-5 = system: OVCAR-5
SF-268 = system: SF-268
NCI-H23 = system: NCI-H23
TK-10 = system: TK-10
NCI/ADR-RES = system: NCI/ADR-RES
NCI-H522 = system: NCI-H522
BT-549 = system: BT-549
HL-60 = system: HL-60
HOP-62 = system: HOP-62
MDA-MB-435 = system: MDA-MB-435
Malme-3M = system: Malme-3M
NCI-H460 = system: NCI-H460
HT-29 = system: HT-29
SN12C = system: SN12C
SF-295 = system: SF-295
EKVX = system: EKVX
A549 = system: A549
HCT-15 = system: HCT-15
HCC 2998 = system: HCC 2998
MCF7 = system: MCF7
MOLT-4 = system: MOLT-4
MDA-MB-231 = system: MDA-MB-231
ACHN = system: ACHN
DU-145 = system: DU-145
UACC-62 = system: UACC-62
SK-MEL-5 = system: SK-MEL-5
SNB-19 = system: SNB-19
SK-MEL-28 = system: SK-MEL-28
HCT-116 = system: HCT-116
LOX IMVI = system: LOX IMVI
PC-3 = system: PC-3
K562 = system: K562
U-251 = system: U-251
SK-MEL-2 = system: SK-MEL-2
Hs-578T = system: Hs-578T
COLO 205 = system: COLO 205
OVCAR-8 = system: OVCAR-8
786-0 = system: 786-0
IGROV-1 = system: IGROV-1
SR = system: SR
OVCAR-3 = system: OVCAR-3
UO-31 = system: UO-31
SNB-75 = system: SNB-75
HOP-92 = system: HOP-92
CAKI-1 = system: CAKI-1
SK-OV-3 = system: SK-OV-3
T47D = system: T47D
RPMI-8226 = system: RPMI-8226

## c1ccc2c3c(c(N4CCNCC4)nc2c1)CCCC3
UACC-257
  GI50: 8.15 µM (inactive)
SF-539
  GI50: 10.7 µM (inactive)
CCRF-CEM
  GI50: 9.98 µM (inactive)
A498
  GI50: 14.5 µM (inactive)
MDA-N
  GI50: 13.9 µM (inactive)
OVCAR-4
  GI50: 16 µM (inactive)
M14
  GI50: 5.26 µM (inactive)
SW-620
  GI50: 17 µM (inactive)
NCI-H226
  GI50: 14.8 µM (inactive)
RXF 393
  GI50: 10.4 µM (inactive)
KM12
  GI50: 17.2 µM (inactive)
OVCAR-5
  GI50: 13.7 µM (inactive)
SF-268
  GI50: 15.2 µM (inactive)
NCI-H23
  GI50: 14.6 µM (inactive)
TK-10
  GI50: 13.7 µM (inactive)
NCI/ADR-RES
  GI50: 14.1 µM (inactive)
NCI-H522
  GI50: 15.3 µM (inactive)
BT-549
  GI50: 13.9 µM (inactive)
HL-60
  GI50: 8.93 µM (inactive)
HOP-62
  GI50: 17.7 µM (inactive)
MDA-MB-435
  GI50: 11.4 µM (inactive)
Malme-3M
  GI50: 19.9 µM (inactive)
NCI-H460
  GI50: 15.1 µM (inactive)
HT-29
  GI50: 14.2 µM (inactive)
SN12C
  GI50: 16.3 µM (inactive)
SF-295
  GI50: 21.6 µM (inactive)
EKVX
  GI50: 7.53 µM (inactive)
A549
  GI50: 15.1 µM (inactive)
HCT-15
  GI50: 15.8 µM
HCC 2998
  GI50: 1.95 µM (inactive)
MCF7
  GI50: 14.4 µM (inactive)
MOLT-4
  GI50: 16.1 µM (inactive)
MDA-MB-231
  GI50: 14.3 µM (inactive)
ACHN
  GI50: 14.5 µM (inactive)
DU-145
  GI50: 15.3 µM (inactive)
UACC-62
  GI50: 16.7 µM (inactive)
SK-MEL-5
  GI50: 12 µM (inactive)
SNB-19
  GI50: 14.6 µM (inactive)
SK-MEL-28
  GI50: 16.1 µM (inactive)
HCT-116
  GI50: 14.1 µM (inactive)
LOX IMVI
  GI50: 14.2 µM (inactive)
PC-3
  GI50: 13 µM (inactive)
K562
  GI50: 5.5 µM (inactive)
U-251
  GI50: 13.4 µM (inactive)
SK-MEL-2
  GI50: 12.6 µM (inactive)
Hs-578T
  GI50: 27.7 µM (inactive)
COLO 205
  GI50: 5.75 µM (inactive)
OVCAR-8
  GI50: 15.5 µM (inactive)
786-0
  GI50: 14.4 µM (inactive)
IGROV-1
  GI50: 12.4 µM (inactive)
SR
  GI50: 13.2 µM (inactive)
OVCAR-3
  GI50: 15.5 µM (inactive)
UO-31
  GI50: 2.9 µM (inactive)
SNB-75
  GI50: 13.9 µM (inactive)
HOP-92
  GI50: 14.2 µM (inactive)
CAKI-1
  GI50: 9.25 µM (inactive)
SK-OV-3
  GI50: 18.8 µM (inactive)
T47D
  GI50: 13.5 µM (inactive)

## O=C1Nc2ccccc2/C1=N/N=c1\cccc[nH]1
UACC-257
  GI50: 41.8 µM (inactive)
CCRF-CEM
  GI50: 18.8 µM (inactive)
RPMI-8226
  GI50: 20.6 µM (inactive)
A498
  GI50: 25.8 µM (inactive)
MDA-N
  GI50: > 100 µM (inactive)
OVCAR-4
  GI50: 20.2 µM (inactive)
M14
  GI50: > 100 µM (inactive)
SW-620
  GI50: > 100 µM (inactive)
NCI-H226
  GI50: 16.1 µM (inactive)
RXF 393
  GI50: 97.3 µM (inactive)
KM12
  GI50: 10.8 µM (inactive)
OVCAR-5
  GI50: 51.5 µM (inactive)
SF-268
  GI50: 35.4 µM (inactive)
NCI-H23
  GI50: 28.2 µM (inactive)
TK-10
  GI50: 22.5 µM (inactive)
NCI/ADR-RES
  GI50: 10.2 µM (inactive)
NCI-H522
  GI50: 17.1 µM (inactive)
BT-549
  GI50: 43.6 µM (inactive)
HL-60
  GI50: 16 µM (inactive)
HOP-62
  GI50: 34.1 µM (inactive)
MDA-MB-435
  GI50: > 100 µM (inactive)
NCI-H460
  GI50: 14.6 µM (inactive)
HT-29
  GI50: 22.2 µM (inactive)
SN12C
  GI50: 29.2 µM (inactive)
SF-295
  GI50: 51.9 µM (inactive)
EKVX
  GI50: 14.5 µM (inactive)
A549
  GI50: 48.8 µM (inactive)
HCT-15
  GI50: 30.3 µM
HCC 2998
  GI50: 23.7 µM (inactive)
MCF7
  GI50: 8.17 µM (inactive)
MOLT-4
  GI50: 49.3 µM (inactive)
MDA-MB-231
  GI50: 12.6 µM (inactive)
ACHN
  GI50: 11 µM (inactive)
DU-145
  GI50: 21 µM (inactive)
UACC-62
  GI50: 65.5 µM (inactive)
SK-MEL-5
  GI50: 40.4 µM (inactive)
SNB-19
  GI50: 30.7 µM (inactive)
SK-MEL-28
  GI50: > 100 µM (inactive)
HCT-116
  GI50: 11.6 µM (inactive)
LOX IMVI
  GI50: 28.8 µM (inactive)
PC-3
  GI50: 52.8 µM (inactive)
K562
  GI50: 52.5 µM (inactive)
U-251
  GI50: 19 µM (inactive)
SK-MEL-2
  GI50: > 100 µM (inactive)
Hs-578T
  GI50: 39.1 µM (inactive)
COLO 205
  GI50: 33.7 µM (inactive)
OVCAR-8
  GI50: 11.9 µM (inactive)
786-0
  GI50: 12.9 µM (inactive)
IGROV-1
  GI50: 1 µM (active)
SR
  GI50: 14.3 µM (inactive)
OVCAR-3
  GI50: 48.8 µM (inactive)
UO-31
  GI50: 12.1 µM (inactive)
SNB-75
  GI50: 21.5 µM (inactive)
CAKI-1
  GI50: 32.8 µM (inactive)
SK-OV-3
  GI50: 18.6 µM (inactive)
T47D
  GI50: 38.5 µM (inactive)

## Cc1[nH]n(-c2ccc(S(=O)(=O)O)cc2)c(=O)c1/N=N/c1ccccc1
UACC-257
  GI50: > 100 µM (inactive)
SF-539
  GI50: > 100 µM (inactive)
RPMI-8226
  GI50: > 100 µM (inactive)
A498
  GI50: > 100 µM (inactive)
MDA-N
  GI50: > 100 µM (inactive)
OVCAR-4
  GI50: > 100 µM (inactive)
M14
  GI50: > 100 µM (inactive)
SW-620
  GI50: > 100 µM (inactive)
RXF 393
  GI50: > 100 µM (inactive)
KM12
  GI50: > 100 µM (inactive)
OVCAR-5
  GI50: > 100 µM (inactive)
SF-268
  GI50: 50.7 µM (inactive)
NCI-H23
  GI50: > 100 µM (inactive)
TK-10
  GI50: > 100 µM (inactive)
NCI/ADR-RES
  GI50: > 100 µM (inactive)
NCI-H522
  GI50: 35 µM (inactive)
BT-549
  GI50: > 100 µM (inactive)
HOP-62
  GI50: > 100 µM (inactive)
MDA-MB-435
  GI50: > 100 µM (inactive)
Malme-3M
  GI50: 51.6 µM (inactive)
NCI-H460
  GI50: > 100 µM (inactive)
HT-29
  GI50: > 100 µM (inactive)
SN12C
  GI50: > 100 µM (inactive)
SF-295
  GI50: > 100 µM (inactive)
EKVX
  GI50: > 100 µM (inactive)
A549
  GI50: > 100 µM (inactive)
HCT-15
  GI50: > 100 µM
HCC 2998
  GI50: 8.04 µM (inactive)
MCF7
  GI50: > 100 µM (inactive)
MOLT-4
  GI50: > 100 µM (inactive)
MDA-MB-231
  GI50: > 100 µM (inactive)
ACHN
  GI50: 55.2 µM (inactive)
DU-145
  GI50: > 100 µM (inactive)
UACC-62
  GI50: 95.1 µM (inactive)
SK-MEL-5
  GI50: > 100 µM (inactive)
SNB-19
  GI50: > 100 µM (inactive)
SK-MEL-28
  GI50: > 100 µM (inactive)
HCT-116
  GI50: > 100 µM (inactive)
LOX IMVI
  GI50: 26.7 µM (inactive)
PC-3
  GI50: > 100 µM (inactive)
K562
  GI50: > 100 µM (inactive)
U-251
  GI50: > 100 µM (inactive)
SK-MEL-2
  GI50: > 100 µM (inactive)
Hs-578T
  GI50: > 100 µM (inactive)
COLO 205
  GI50: > 100 µM (inactive)
OVCAR-8
  GI50: > 100 µM (inactive)
786-0
  GI50: > 100 µM (inactive)
IGROV-1
  GI50: > 100 µM (inactive)
SR
  GI50: > 100 µM (inactive)
OVCAR-3
  GI50: > 100 µM (inactive)
UO-31
  GI50: > 100 µM (inactive)
SNB-75
  GI50: > 100 µM (inactive)
HOP-92
  GI50: > 100 µM (inactive)
CAKI-1
  GI50: > 100 µM (inactive)
SK-OV-3
  GI50: > 100 µM (inactive)
T47D
  GI50: > 100 µM (inactive)
